Reference: the supplement of paper PMC6411743

Compound: Nc1ncnc2c1ncn2[C@@H]1O[C@H](COP(=O)(O)OP(=O)(O)OP(=O)(O)O)[C@@H](O)[C@H]1O [adenosine triphosphate]
Assay: pEC50 of ATP-induced change in protein thermal stability (2D-TPP)
Summary of the method: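 In three independent experiments, Jurkat crude lysate received five concentrations including vehicle for 10 min at room temperature before a 3 min heating step at 12 temperatures (42–63.9 °C). NP40 and benzonase were then added for 60 min at 4 °C, and soluble protein after ultracentrifugation was read out by TMT LC-MS/MS as median-normalised fold changes against vehicle at each temperature. Dose-response fits per replicate over adjacent temperature pairs yielded pEC50, with hits called by permutation-based false discovery rate control.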
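Note: lysate dosed with Na-ATP at 0 0.005 0.05 0.5 and 2 mM.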

UniProt P48729, sequence (P48729 whole entry, looked up): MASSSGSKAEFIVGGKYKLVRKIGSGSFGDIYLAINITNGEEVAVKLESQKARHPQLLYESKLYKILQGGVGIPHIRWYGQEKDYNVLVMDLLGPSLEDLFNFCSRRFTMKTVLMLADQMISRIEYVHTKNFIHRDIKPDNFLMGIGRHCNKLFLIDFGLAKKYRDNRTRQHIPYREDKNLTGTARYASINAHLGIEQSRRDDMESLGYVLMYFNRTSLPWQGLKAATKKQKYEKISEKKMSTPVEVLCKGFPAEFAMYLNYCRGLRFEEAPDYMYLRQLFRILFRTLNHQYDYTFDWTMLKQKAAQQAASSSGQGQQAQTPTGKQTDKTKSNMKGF
UniProt Q9NP81, sequence (Q9NP81 whole entry): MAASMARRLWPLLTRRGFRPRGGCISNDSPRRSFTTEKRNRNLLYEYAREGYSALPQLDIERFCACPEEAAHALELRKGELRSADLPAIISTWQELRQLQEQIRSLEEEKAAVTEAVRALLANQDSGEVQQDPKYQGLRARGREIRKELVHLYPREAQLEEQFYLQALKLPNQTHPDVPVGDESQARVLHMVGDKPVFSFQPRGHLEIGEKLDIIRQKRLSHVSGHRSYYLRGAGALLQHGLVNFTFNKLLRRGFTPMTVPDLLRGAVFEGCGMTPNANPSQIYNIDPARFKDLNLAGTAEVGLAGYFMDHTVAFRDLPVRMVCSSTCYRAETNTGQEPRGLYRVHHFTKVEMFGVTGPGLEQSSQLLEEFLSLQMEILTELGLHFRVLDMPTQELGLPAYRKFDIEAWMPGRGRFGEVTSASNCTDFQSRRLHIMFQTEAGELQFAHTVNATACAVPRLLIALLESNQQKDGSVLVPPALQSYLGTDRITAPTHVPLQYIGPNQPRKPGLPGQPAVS
UniProt Q15435, sequence (Q15435 whole entry): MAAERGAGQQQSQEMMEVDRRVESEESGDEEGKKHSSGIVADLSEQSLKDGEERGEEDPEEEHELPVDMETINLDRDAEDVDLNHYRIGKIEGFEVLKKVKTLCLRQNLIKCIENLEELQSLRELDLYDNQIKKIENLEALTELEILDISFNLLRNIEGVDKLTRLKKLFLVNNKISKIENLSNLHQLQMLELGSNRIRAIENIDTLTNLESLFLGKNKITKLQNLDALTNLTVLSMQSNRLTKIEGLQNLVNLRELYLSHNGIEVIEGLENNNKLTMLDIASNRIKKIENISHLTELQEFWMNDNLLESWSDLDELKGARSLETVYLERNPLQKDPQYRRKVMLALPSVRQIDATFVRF
UniProt Q15008, sequence (Q15008 whole entry): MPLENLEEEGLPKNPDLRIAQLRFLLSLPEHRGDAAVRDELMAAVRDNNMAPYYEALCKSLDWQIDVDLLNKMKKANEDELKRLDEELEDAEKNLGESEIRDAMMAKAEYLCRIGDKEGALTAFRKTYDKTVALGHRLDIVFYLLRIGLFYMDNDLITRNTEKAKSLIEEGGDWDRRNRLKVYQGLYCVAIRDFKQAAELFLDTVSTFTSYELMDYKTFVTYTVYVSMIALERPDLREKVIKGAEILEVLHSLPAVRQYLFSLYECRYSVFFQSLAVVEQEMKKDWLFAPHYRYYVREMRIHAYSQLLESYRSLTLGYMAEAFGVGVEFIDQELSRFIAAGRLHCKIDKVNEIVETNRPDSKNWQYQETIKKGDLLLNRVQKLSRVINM
UniProt P62191, sequence (P62191 whole entry): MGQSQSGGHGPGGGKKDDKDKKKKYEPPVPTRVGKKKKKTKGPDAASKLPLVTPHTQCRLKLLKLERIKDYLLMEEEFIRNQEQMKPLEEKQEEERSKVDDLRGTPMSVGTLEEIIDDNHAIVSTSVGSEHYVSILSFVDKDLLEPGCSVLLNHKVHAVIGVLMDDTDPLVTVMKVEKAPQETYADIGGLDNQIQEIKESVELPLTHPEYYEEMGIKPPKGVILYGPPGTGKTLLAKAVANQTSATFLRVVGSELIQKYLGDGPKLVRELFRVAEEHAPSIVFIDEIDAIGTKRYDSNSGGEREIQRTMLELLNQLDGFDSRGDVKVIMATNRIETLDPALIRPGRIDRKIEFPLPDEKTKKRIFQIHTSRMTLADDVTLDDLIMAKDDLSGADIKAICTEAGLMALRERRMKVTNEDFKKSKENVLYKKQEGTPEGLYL
UniProt Q00535, sequence (Q00535 whole entry, looked up): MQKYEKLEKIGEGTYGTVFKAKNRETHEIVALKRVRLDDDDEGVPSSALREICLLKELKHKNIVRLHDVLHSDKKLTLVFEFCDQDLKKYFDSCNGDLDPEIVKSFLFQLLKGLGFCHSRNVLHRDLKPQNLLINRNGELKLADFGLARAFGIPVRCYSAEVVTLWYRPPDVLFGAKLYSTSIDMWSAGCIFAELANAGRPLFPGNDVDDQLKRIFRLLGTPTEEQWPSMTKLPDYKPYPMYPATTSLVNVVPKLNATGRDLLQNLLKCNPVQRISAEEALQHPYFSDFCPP
UniProt P07954, sequence (P07954 whole entry): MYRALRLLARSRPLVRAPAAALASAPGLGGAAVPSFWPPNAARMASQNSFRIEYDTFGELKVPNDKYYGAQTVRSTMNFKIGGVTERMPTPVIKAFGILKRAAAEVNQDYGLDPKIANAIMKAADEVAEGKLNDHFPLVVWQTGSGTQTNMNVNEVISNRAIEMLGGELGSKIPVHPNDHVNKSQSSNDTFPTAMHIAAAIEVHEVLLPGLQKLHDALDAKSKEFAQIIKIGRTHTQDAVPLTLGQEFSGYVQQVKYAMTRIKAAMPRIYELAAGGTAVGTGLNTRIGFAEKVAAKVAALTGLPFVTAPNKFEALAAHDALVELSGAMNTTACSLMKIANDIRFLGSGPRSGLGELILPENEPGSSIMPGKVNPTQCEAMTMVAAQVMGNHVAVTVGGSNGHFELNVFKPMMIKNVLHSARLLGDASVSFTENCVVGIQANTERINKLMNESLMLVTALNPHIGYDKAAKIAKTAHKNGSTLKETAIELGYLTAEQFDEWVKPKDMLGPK
UniProt Q00537, sequence (Q00537 whole entry, looked up): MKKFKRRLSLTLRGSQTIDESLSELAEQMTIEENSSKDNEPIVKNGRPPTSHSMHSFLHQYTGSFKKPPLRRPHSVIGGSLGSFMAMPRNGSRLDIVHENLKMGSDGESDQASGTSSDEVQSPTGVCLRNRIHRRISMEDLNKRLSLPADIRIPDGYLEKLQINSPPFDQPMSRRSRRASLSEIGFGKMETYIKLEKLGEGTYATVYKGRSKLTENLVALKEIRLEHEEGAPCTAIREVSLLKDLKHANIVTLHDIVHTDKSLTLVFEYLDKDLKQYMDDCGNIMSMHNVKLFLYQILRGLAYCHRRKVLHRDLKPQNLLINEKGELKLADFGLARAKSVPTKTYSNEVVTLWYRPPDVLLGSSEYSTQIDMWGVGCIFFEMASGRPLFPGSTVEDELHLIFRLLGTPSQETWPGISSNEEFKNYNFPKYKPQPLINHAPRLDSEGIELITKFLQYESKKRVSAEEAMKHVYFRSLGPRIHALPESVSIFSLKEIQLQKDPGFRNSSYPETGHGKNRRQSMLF
UniProt Q8WUD4, sequence (Q8WUD4 whole entry): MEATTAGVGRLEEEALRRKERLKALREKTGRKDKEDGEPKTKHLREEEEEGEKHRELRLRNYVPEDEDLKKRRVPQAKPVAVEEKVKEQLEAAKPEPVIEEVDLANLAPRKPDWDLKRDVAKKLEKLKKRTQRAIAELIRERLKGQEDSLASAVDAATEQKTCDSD
UniProt P55036, sequence (P55036 whole entry): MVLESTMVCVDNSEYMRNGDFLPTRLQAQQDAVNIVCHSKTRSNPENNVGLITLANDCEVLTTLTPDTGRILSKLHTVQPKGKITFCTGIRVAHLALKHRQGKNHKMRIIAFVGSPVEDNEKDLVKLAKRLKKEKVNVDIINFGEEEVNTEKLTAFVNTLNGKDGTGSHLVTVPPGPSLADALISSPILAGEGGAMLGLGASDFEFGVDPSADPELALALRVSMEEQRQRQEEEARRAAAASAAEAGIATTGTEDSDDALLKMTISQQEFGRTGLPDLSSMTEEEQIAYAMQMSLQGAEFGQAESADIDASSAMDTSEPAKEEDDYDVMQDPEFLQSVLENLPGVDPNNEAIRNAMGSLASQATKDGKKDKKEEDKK
UniProt P84095, sequence (P84095 whole entry): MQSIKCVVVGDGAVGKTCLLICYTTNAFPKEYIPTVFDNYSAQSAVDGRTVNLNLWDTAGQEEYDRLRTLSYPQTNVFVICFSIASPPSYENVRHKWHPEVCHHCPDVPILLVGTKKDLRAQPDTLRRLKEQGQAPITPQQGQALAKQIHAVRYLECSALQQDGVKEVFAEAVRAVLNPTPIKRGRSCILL
UniProt P14866, sequence (P14866 whole entry): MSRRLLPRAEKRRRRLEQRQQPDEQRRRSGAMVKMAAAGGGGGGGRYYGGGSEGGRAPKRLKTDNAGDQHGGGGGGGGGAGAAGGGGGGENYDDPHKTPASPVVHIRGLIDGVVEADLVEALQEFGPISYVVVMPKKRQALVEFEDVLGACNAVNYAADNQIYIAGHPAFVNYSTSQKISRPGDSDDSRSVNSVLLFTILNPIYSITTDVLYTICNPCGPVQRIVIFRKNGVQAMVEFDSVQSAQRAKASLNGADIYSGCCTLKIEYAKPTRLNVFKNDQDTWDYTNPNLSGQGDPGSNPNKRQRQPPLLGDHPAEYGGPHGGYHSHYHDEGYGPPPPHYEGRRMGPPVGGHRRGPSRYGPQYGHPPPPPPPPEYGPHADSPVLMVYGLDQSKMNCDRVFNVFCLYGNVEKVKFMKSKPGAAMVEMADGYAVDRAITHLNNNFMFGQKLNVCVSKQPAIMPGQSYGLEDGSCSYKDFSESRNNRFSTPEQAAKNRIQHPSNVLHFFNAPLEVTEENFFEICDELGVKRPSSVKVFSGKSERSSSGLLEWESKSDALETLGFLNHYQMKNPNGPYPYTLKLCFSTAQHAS
UniProt Q4VC05, sequence (Q4VC05 whole entry): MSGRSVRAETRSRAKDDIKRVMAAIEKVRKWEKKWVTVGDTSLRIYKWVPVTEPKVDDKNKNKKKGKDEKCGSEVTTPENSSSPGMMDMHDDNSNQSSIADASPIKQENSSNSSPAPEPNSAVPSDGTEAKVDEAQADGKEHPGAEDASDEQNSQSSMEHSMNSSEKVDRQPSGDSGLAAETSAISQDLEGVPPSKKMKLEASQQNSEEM

Target	pEC50
FAM162A (effect direction: destabilized) (UniProt Q96A26)	3.13
CDIPT (effect direction: destabilized) (UniProt O14735)	2.77
NIPSNAP1 (effect direction: stabilized) (UniProt Q9BPW8)	3.75
HNRNPUL2 (effect direction: stabilized) (UniProt Q1KMD3)	3.39
C12orf29 (effect direction: destabilized) (UniProt Q8N999)	3.11
CNOT2 (effect direction: stabilized) (UniProt Q9NZN8)	2.77
NKTR (effect direction: stabilized) (UniProt P30414)	3.22
NRF1 (effect direction: stabilized) (UniProt Q16656)	2.97
PURB (effect direction: stabilized) (UniProt Q96QR8)	< 2.7
ZNF148 (effect direction: stabilized) (UniProt Q9UQR1)	2.88
CYB5R3 (effect direction: stabilized) (UniProt P00387)	4.02
SARS2 (effect direction: stabilized) (UniProt Q9NP81)	3.43
MSN (effect direction: destabilized) (UniProt P26038)	3.04
EFHD2 (effect direction: destabilized) (UniProt Q96C19)	3.08
TCP1 (effect direction: stabilized) (UniProt P17987)	4.76
UniProt Q96BW9 (effect direction: stabilized)	3.16
PSMC3 (effect direction: stabilized) (UniProt P17980)	4.02
RIOK3 (effect direction: stabilized) (UniProt O14730)	3.7
CDK5 (effect direction: stabilized) (UniProt Q00535)	3.46
UniProt Q00537 (effect direction: stabilized)	2.73
CBWD1 (effect direction: stabilized) (UniProt Q9BRT8)	2.96
UBA5 (effect direction: stabilized) (UniProt Q9GZZ9)	3.81
CHD1L (effect direction: stabilized) (UniProt Q86WJ1)	3.74

Target	pEC50
BCL7A (effect direction: destabilized) (UniProt Q4VC05)	3.03
UniProt P48729 (effect direction: stabilized)	3.3
CDK9 (effect direction: stabilized) (UniProt P50750)	> 5.3
SRPRB (effect direction: stabilized) (UniProt Q9Y5M8)	3.22
LRWD1 (effect direction: stabilized) (UniProt Q9UFC0)	3.85
RRP15 (effect direction: destabilized) (UniProt Q9Y3B9)	3.51
FIGNL1 (effect direction: stabilized) (UniProt Q6PIW4)	3.82
PGP (effect direction: destabilized) (UniProt A6NDG6)	< 2.7
C1QBP (effect direction: stabilized) (UniProt Q07021)	< 2.7
KIF5B (effect direction: stabilized) (UniProt P33176)	4.09
SFXN1 (effect direction: stabilized) (UniProt Q9H9B4)	2.77
UniProt Q7Z2Z2 (effect direction: stabilized)	2.78
NFKB1 (effect direction: stabilized) (UniProt P19838)	3.66
MRPL19 (effect direction: destabilized) (UniProt P49406)	4.49
IPO9 (effect direction: destabilized) (UniProt Q96P70)	3.67
UniProt Q14289 (effect direction: stabilized)	3.03
A0AVT1 (effect direction: stabilized)	4.35
DECR1 (effect direction: stabilized) (UniProt Q16698)	< 2.7
LARS2 (effect direction: stabilized) (UniProt Q15031)	3.59
AARS2 (effect direction: stabilized) (UniProt Q5JTZ9)	3.29
YRDC (effect direction: stabilized) (UniProt Q86U90)	2.91
FARSB (effect direction: stabilized) (UniProt Q9NSD9)	3.16
UniProt P84095 (effect direction: destabilized)	3.01

Target	pEC50
MAP3K4 (effect direction: stabilized) (UniProt Q9Y6R4)	3.63
GSS (effect direction: stabilized) (UniProt P48637)	3.56
KRI1 (effect direction: destabilized) (UniProt Q8N9T8)	2.81
UBA3 (effect direction: stabilized) (UniProt Q8TBC4)	3.86
UniProt P14618 (effect direction: destabilized)	2.87
DERA (effect direction: stabilized) (UniProt Q9Y315)	3.16
UniProt P0C0S8 (effect direction: stabilized)	2.92
SNRNP27 (effect direction: stabilized) (UniProt Q8WVK2)	3.64
PSMD6 (effect direction: stabilized) (UniProt Q15008)	4.15
FAM49B (effect direction: stabilized) (UniProt Q9NUQ9)	2.78
ZRANB2 (effect direction: stabilized) (UniProt O95218)	2.84
HNRNPF (effect direction: stabilized) (UniProt P52597)	< 2.7
UniProt P68431 (effect direction: stabilized)	2.79
RPL10 (effect direction: destabilized) (UniProt P27635)	3.88
ATP2B4 (effect direction: stabilized) (UniProt P23634)	3.22
ACSL6 (effect direction: stabilized) (UniProt Q9UKU0)	3.69
FH (effect direction: stabilized) (UniProt P07954)	3.08
FARSA (effect direction: stabilized) (UniProt Q9Y285)	3.47
MARS2 (effect direction: stabilized) (UniProt Q96GW9)	3.24
PLK1 (effect direction: stabilized) (UniProt P53350)	3.69
WRN (effect direction: stabilized) (UniProt Q14191)	4.09
ALDH18A1 (effect direction: stabilized) (UniProt P54886)	3.12
TUBB3 (effect direction: stabilized) (UniProt Q13509)	3.69

Target	pEC50
OXA1L (effect direction: stabilized) (UniProt Q15070)	< 2.7
FUCA1 (effect direction: destabilized) (UniProt P04066)	> 5.3
MRPS22 (effect direction: destabilized) (UniProt P82650)	4.46
RACGAP1 (effect direction: stabilized) (UniProt Q9H0H5)	3.69
UniProt P62241 (effect direction: destabilized)	3.14
MYH10 (effect direction: stabilized) (UniProt P35580)	4.1
UniProt P62191 (effect direction: stabilized)	4.55
UniProt Q5VZE5 (effect direction: stabilized)	2.92
UniProt P04350 (effect direction: stabilized)	3.07
CHKA (effect direction: stabilized) (UniProt P35790)	3.49
UniProt Q8N2M8 (effect direction: stabilized)	< 2.7
CCDC12 (effect direction: destabilized) (UniProt Q8WUD4)	3.49
TLK2 (effect direction: stabilized) (UniProt Q86UE8)	3.07
PPP1R7 (effect direction: stabilized) (UniProt Q15435)	< 2.7
ALKBH5 (effect direction: stabilized) (UniProt Q6P6C2)	3.65
PSMC4 (effect direction: stabilized) (UniProt P43686)	4.09
HNRNPL (effect direction: stabilized) (UniProt P14866)	3.23
HEATR3 (effect direction: stabilized) (UniProt Q7Z4Q2)	2.83
SCCPDH (effect direction: stabilized) (UniProt Q8NBX0)	3.12
RPN1 (effect direction: stabilized) (UniProt P04843)	< 2.7
PPP2CA (effect direction: destabilized) (UniProt P67775)	< 2.7
UniProt P27361 (effect direction: stabilized)	3.54
PSMD4 (effect direction: stabilized) (UniProt P55036)	3.77
